The record followed here is publication PMC10518255, “A first-in-class pan-lysyl oxidase inhibitor impairs stromal remodeling and enhances gemcitabine response and survival in pancreatic cancer” (Nature Cancer, 2023).

This test has as its system pMLC2. Kind of test: Immunohistochemistry of end-point KPC tumors: stromal regions. It is filed as in vivo, mouse. To be noted: for Quantification of pMLC2 positive staining in stromal regions: Extended Data 6D, KPC tumours at endpoint, individual FOV. Here is the method: All tissues or matrices, including patient TMAs, were fixed in 10% buffered formalin and embedded in paraffin. The 4-μm sections of samples were deparaffinized with xylene and rehydrated in graded ethanol washes. For immunohistochemistry, Bond Dewax Solution (AR9222) was used. Antigen retrieval was performed using Bond RX H2(30) protocol: HIER 30 min ER1 (citrate pH 6) OR ER2 (EDTA pH 9) at 100 °C. Slides were quenched in BOND Polymer Refine Detection (Leica Biosystems DS9800). […] Slides were digitized on an Aperio slide scanner and representative areas per tumor acquired and analyzed by researchers blinded to the conditions of the experiment.
Extended Data Fig. 6 PXS-5505 in combination with gemcitabine in a KPC model. a. Quantification of proliferating cells (Ki67 positive nuclear staining) in KPC tumors at end point, treated as indicated. 5 fields of view (500 μm × 500 μm) per mouse and 10 mice per cohort were scored. […] Quantification of percent coverage of αSMA positive staining in KPC tumors at end point, treated as indicated. 3 fields of view (1000 μm × 1000 μm) per mouse and 10 mice per cohort were scored. […] Quantification of percent coverage of PDGFR-ß positive staining in KPC tumors at end point, treated as indicated. 3 fields of view (1000 μm × 1000 μm) per mouse and 10 mice per cohort were scored. […] Quantification of pMLC2 positive staining in stromal regions of KPC tumors at end point, treated as indicated. 3 fields of view (500 μm × 500 μm) per mouse and 10 mice per cohort were scored. […] Quantification of tumor vasculature (CD31 positive staining) in KPC tumors at end point, treated as indicated. 3 fields of view (1000 μm × 1000 μm) per mouse and 10 mice per cohort were scored. […] Quantification of STAT3 activation (pSTAT3 positive nuclear staining) in KPC tumors at end point, treated as indicated. 3 fields of view (1000 μm × 1000 μm) per mouse and 5 mice per cohort were scored. […] Scale bars = 100 μm. g Quantification of macrophage infiltration (F4/80 positive staining) in KPC tumors at end point, treated as indicated. […]

Several values for one entry are separate records, joined by “and”; a condition that tells them apart may be missing. Identical values can stand only once.

For the compound `Nc1ccn([C@@H]2O[C@H](CO)[C@@H](O)C2(F)F)c(=O)n1` [Gem, gemcitabine], the “Quantification of pMLC2 positive staining in stromal regions” value was 92.08 and 84.2 and 87.45 and 82.3 and 82.92 and 94.71 and 90.49 and 43.06 and 73.39 and 39.68 and 25.28 and 42.05 and 30.69 and 23.6 and 44.73 and 91.07 and 86.73 and 81.83 and 77.4 and 63.11 and 93.35 and 65.58 and 88.53 and 67.95 and 49 and 89.81 and 73.17 and 62.17 and 93.12 and 52.2. The “pMLC2 in stromal regions” value (KPC tumors at end point) was “increased pMLC2”. In the case of `Cl.Cl.NC/C=C(\F)CS(=O)(=O)c1cccc2cccnc12.O` [PXS-5505, (Z)-3-fluoro-4-(quinolin-8-ylsulfonyl)but-2-en-1-amine dihydrochloride monohydrate], the “Quantification of pMLC2 positive staining in stromal regions” value is 16.71 and 49.28 and 7.302 and 93.81 and 91.78 and 78.97 and 53.28 and 54.73 and 45.61 and 13.2 and 20.93 and 42.23 and 36.07 and 17.51 and 40.83 and 47.04 and 47.28 and 39.88 and 19.03 and 15.52 and 73.22 and 64.14 and 60.07 and 90.97 and 8.8 and 20.91 and 61.66 and 4.245 and 28.34 and 17.54.
